{"source": "patent US12459918B2", "about": "“Isoquinolinone derivatives serving as rock protein kinase inhibitors and use thereof” (GUANGZHOU OCUSUN OPHTHALMIC BIOTECHNOLOGY CO., LTD., priority 2019, dated 2025)", "tested_on": "New Zealand rabbits with normal intraocular pressure", "assay": "Intraocular pressure reduction experiment in New Zealand rabbits with normal intraocular pressure", "type": "in vivo", "settings": "for Intraocular pressure in the left eye: left eye (saline or solvent); for Reduction magnitude of intraocular pressure: left minus right eye", "excerpt": "Experimental Example 2. Intraocular Pressure Reduction Experiment in New Zealand Rabbits with Normal Intraocular Pressure\nRabbits with normal intraocular pressure were adopted to screen intraocular pressure reduction actions of the potential compounds by eye-drop administration.\nMale New Zealand rabbits, aged 97-127 days, weighted 2.65-3.5 kg, purchased from PizhouDongfang Breeding Co. Ltd.\nThe male New Zealand rabbits were randomly divided into 8 rabbits/per group using a computer-generated randomization method Animals in each group were eye-dropped with different test samples in the right eye, and normal saline or solvent in the left eye, and the volume of the administration was both 50 μL/eye. The intraocular pressure of the animals was measured before administration and in 1, 2, 4, 6, 8 and 10 hours after the administration, respectively."}
{"smiles": "Cc1cn(COC(=O)c2ccccc2)c(=O)c2cccc(S(=O)(=O)N3CCC(N)C3)c12", "note": "(stereo not shown) [Compound 60]", "values": [{"measurement": "Intraocular pressure in the left eye", "setting": "5.0 mg/mL group, 1 hour after administration", "result": 11.33, "unit": "mmHg"}, {"measurement": "Intraocular pressure in the left eye", "setting": "5.0 mg/mL group, 2 hours after administration", "result": 11.42, "unit": "mmHg"}, {"measurement": "Intraocular pressure in the left eye", "setting": "5.0 mg/mL group, 4 hours after administration", "result": 12.63, "unit": "mmHg"}, {"measurement": "Intraocular pressure in the left eye", "setting": "5.0 mg/mL group, 6 hours after administration", "result": 12.75, "unit": "mmHg"}, {"measurement": "Intraocular pressure in the left eye", "setting": "5.0 mg/mL group, 8 hours after administration", "result": 13.29, "unit": "mmHg"}, {"measurement": "Intraocular pressure in the left eye", "setting": "5.0 mg/mL group, 10 hours after administration", "result": 14.08, "unit": "mmHg"}, {"measurement": "Intraocular pressure in the left eye", "setting": "5.0 mg/mL group, before administration", "result": 11.79, "unit": "mmHg"}, {"measurement": "Intraocular pressure in the right eye", "setting": "5.0 mg/mL in right eye, 1 hour after administration", "result": 7.83, "unit": "mmHg"}, {"measurement": "Intraocular pressure in the right eye", "setting": "5.0 mg/mL in right eye, 2 hours after administration", "result": 7.00, "unit": "mmHg"}, {"measurement": "Intraocular pressure in the right eye", "setting": "5.0 mg/mL in right eye, 4 hours after administration", "result": 7.79, "unit": "mmHg"}, {"measurement": "Intraocular pressure in the right eye", "setting": "5.0 mg/mL in right eye, 6 hours after administration", "result": 8.54, "unit": "mmHg"}, {"measurement": "Intraocular pressure in the right eye", "setting": "5.0 mg/mL in right eye, 8 hours after administration", "result": 10.13, "unit": "mmHg"}, {"measurement": "Intraocular pressure in the right eye", "setting": "5.0 mg/mL in right eye, 10 hours after administration", "result": 12.54, "unit": "mmHg"}, {"measurement": "Intraocular pressure in the right eye", "setting": "5.0 mg/mL in right eye, before administration", "result": 11.75, "unit": "mmHg"}, {"measurement": "Reduction magnitude of intraocular pressure", "setting": "5.0 mg/mL, 1 hour after administration", "result": 3.5, "unit": "mmHg"}, {"measurement": "Reduction magnitude of intraocular pressure", "setting": "5.0 mg/mL, 2 hours after administration", "result": 4.42, "unit": "mmHg"}, {"measurement": "Reduction magnitude of intraocular pressure", "setting": "5.0 mg/mL, 4 hours after administration", "result": 4.84, "unit": "mmHg"}, {"measurement": "Reduction magnitude of intraocular pressure", "setting": "5.0 mg/mL, 6 hours after administration", "result": 4.21, "unit": "mmHg"}, {"measurement": "Reduction magnitude of intraocular pressure", "setting": "5.0 mg/mL, 8 hours after administration", "result": 3.16, "unit": "mmHg"}, {"measurement": "Reduction magnitude of intraocular pressure", "setting": "5.0 mg/mL, 10 hours after administration", "result": 1.54, "unit": "mmHg"}, {"measurement": "Reduction magnitude of intraocular pressure", "setting": "5.0 mg/mL, before administration", "result": 0.04, "unit": "mmHg"}, {"measurement": "Intraocular pressure in the left eye", "setting": "10.0 mg/mL group, 1 hour after administration", "result": 12.08, "unit": "mmHg"}, {"measurement": "Intraocular pressure in the left eye", "setting": "10.0 mg/mL group, 2 hours after administration", "result": 12.08, "unit": "mmHg"}, {"measurement": "Intraocular pressure in the left eye", "setting": "10.0 mg/mL group, 4 hours after administration", "result": 12.96, "unit": "mmHg"}, {"measurement": "Intraocular pressure in the left eye", "setting": "10.0 mg/mL group, 6 hours after administration", "result": 12.38, "unit": "mmHg"}, {"measurement": "Intraocular pressure in the left eye", "setting": "10.0 mg/mL group, 8 hours after administration", "result": 13.04, "unit": "mmHg"}, {"measurement": "Intraocular pressure in the left eye", "setting": "10.0 mg/mL group, 10 hours after administration", "result": 13.38, "unit": "mmHg"}, {"measurement": "Intraocular pressure in the left eye", "setting": "10.0 mg/mL group, before administration", "result": 11.96, "unit": "mmHg"}, {"measurement": "Intraocular pressure in the right eye", "setting": "10.0 mg/mL in right eye, 1 hour after administration", "result": 7.96, "unit": "mmHg"}, {"measurement": "Intraocular pressure in the right eye", "setting": "10.0 mg/mL in right eye, 2 hours after administration", "result": 6.42, "unit": "mmHg"}, {"measurement": "Intraocular pressure in the right eye", "setting": "10.0 mg/mL in right eye, 4 hours after administration", "result": 7.13, "unit": "mmHg"}, {"measurement": "Intraocular pressure in the right eye", "setting": "10.0 mg/mL in right eye, 6 hours after administration", "result": 8.00, "unit": "mmHg"}, {"measurement": "Intraocular pressure in the right eye", "setting": "10.0 mg/mL in right eye, 8 hours after administration", "result": 9.42, "unit": "mmHg"}, {"measurement": "Intraocular pressure in the right eye", "setting": "10.0 mg/mL in right eye, 10 hours after administration", "result": 10.96, "unit": "mmHg"}, {"measurement": "Intraocular pressure in the right eye", "setting": "10.0 mg/mL in right eye, before administration", "result": 11.33, "unit": "mmHg"}, {"measurement": "Reduction magnitude of intraocular pressure", "setting": "10.0 mg/mL, 1 hour after administration", "result": 4.12, "unit": "mmHg"}, {"measurement": "Reduction magnitude of intraocular pressure", "setting": "10.0 mg/mL, 2 hours after administration", "result": 5.66, "unit": "mmHg"}, {"measurement": "Reduction magnitude of intraocular pressure", "setting": "10.0 mg/mL, 4 hours after administration", "result": 5.83, "unit": "mmHg"}, {"measurement": "Reduction magnitude of intraocular pressure", "setting": "10.0 mg/mL, 6 hours after administration", "result": 4.38, "unit": "mmHg"}, {"measurement": "Reduction magnitude of intraocular pressure", "setting": "10.0 mg/mL, 8 hours after administration", "result": 3.62, "unit": "mmHg"}, {"measurement": "Reduction magnitude of intraocular pressure", "setting": "10.0 mg/mL, 10 hours after administration", "result": 2.42, "unit": "mmHg"}, {"measurement": "Reduction magnitude of intraocular pressure", "setting": "10.0 mg/mL, before administration", "result": 0.63, "unit": "mmHg"}, {"measurement": "Intraocular pressure in the left eye", "setting": "20 mg/mL group, 1 hour after administration", "result": 12.42, "unit": "mmHg"}, {"measurement": "Intraocular pressure in the left eye", "setting": "20 mg/mL group, 2 hours after administration", "result": 12.96, "unit": "mmHg"}, {"measurement": "Intraocular pressure in the left eye", "setting": "20 mg/mL group, 4 hours after administration", "result": 13.17, "unit": "mmHg"}, {"measurement": "Intraocular pressure in the left eye", "setting": "20 mg/mL group, 6 hours after administration", "result": 12.54, "unit": "mmHg"}, {"measurement": "Intraocular pressure in the left eye", "setting": "20 mg/mL group, 8 hours after administration", "result": 13.17, "unit": "mmHg"}, {"measurement": "Intraocular pressure in the left eye", "setting": "20 mg/mL group, 10 hours after administration", "result": 13.71, "unit": "mmHg"}, {"measurement": "Intraocular pressure in the left eye", "setting": "20 mg/mL group, before administration", "result": 12.63, "unit": "mmHg"}, {"measurement": "Intraocular pressure in the right eye", "setting": "20 mg/mL in right eye, 1 hour after administration", "result": 10.21, "unit": "mmHg"}, {"measurement": "Intraocular pressure in the right eye", "setting": "20 mg/mL in right eye, 2 hours after administration", "result": 7.17, "unit": "mmHg"}, {"measurement": "Intraocular pressure in the right eye", "setting": "20 mg/mL in right eye, 4 hours after administration", "result": 7.92, "unit": "mmHg"}, {"measurement": "Intraocular pressure in the right eye", "setting": "20 mg/mL in right eye, 6 hours after administration", "result": 7.63, "unit": "mmHg"}, {"measurement": "Intraocular pressure in the right eye", "setting": "20 mg/mL in right eye, 8 hours after administration", "result": 8.83, "unit": "mmHg"}, {"measurement": "Intraocular pressure in the right eye", "setting": "20 mg/mL in right eye, 10 hours after administration", "result": 10.83, "unit": "mmHg"}, {"measurement": "Intraocular pressure in the right eye", "setting": "20 mg/mL in right eye, before administration", "result": 12.42, "unit": "mmHg"}, {"measurement": "Reduction magnitude of intraocular pressure", "setting": "20 mg/mL, 1 hour after administration", "result": 2.21, "unit": "mmHg"}, {"measurement": "Reduction magnitude of intraocular pressure", "setting": "20 mg/mL, 2 hours after administration", "result": 5.79, "unit": "mmHg"}, {"measurement": "Reduction magnitude of intraocular pressure", "setting": "20 mg/mL, 4 hours after administration", "result": 5.25, "unit": "mmHg"}, {"measurement": "Reduction magnitude of intraocular pressure", "setting": "20 mg/mL, 6 hours after administration", "result": 4.91, "unit": "mmHg"}, {"measurement": "Reduction magnitude of intraocular pressure", "setting": "20 mg/mL, 8 hours after administration", "result": 4.34, "unit": "mmHg"}, {"measurement": "Reduction magnitude of intraocular pressure", "setting": "20 mg/mL, 10 hours after administration", "result": 2.88, "unit": "mmHg"}, {"measurement": "Reduction magnitude of intraocular pressure", "setting": "20 mg/mL, before administration", "result": 0.21, "unit": "mmHg"}, {"measurement": "Reduction of intraocular pressure", "setting": "concentrations of 2.5, 5 and 10 mg/mL", "result": "remarkably significant reduction of intraocular pressure"}]}
